# Values of other authors as cited in patent publication US20220081482A1, “ANTICANCER COMPOSITIONS COMPRISING IMMUNE CHECKPOINT INHIBITORS” (priority 2018, published 2022).
# Conditions: orally administered to rats
compound,measurement,value
CN(C)C(=N)N=C(N)N [metformin],LD50,"1,450 mg/kg"
